Data taken from ChEMBL document CHEMBL5465560, “Selectivity Literature for EUbOPEN Chemogenomic Library” (2024).

Tests used:
[1] = molecular target: T1, Rhodopsin kinase GRK7 (Homo sapiens) (UniProt Q8WTQ7); assay: Selectivity interaction (KinomeScan (DiscoverX)) EUB0001079a GRK7; settings: at 1 µM
T1 sequence (whole entry): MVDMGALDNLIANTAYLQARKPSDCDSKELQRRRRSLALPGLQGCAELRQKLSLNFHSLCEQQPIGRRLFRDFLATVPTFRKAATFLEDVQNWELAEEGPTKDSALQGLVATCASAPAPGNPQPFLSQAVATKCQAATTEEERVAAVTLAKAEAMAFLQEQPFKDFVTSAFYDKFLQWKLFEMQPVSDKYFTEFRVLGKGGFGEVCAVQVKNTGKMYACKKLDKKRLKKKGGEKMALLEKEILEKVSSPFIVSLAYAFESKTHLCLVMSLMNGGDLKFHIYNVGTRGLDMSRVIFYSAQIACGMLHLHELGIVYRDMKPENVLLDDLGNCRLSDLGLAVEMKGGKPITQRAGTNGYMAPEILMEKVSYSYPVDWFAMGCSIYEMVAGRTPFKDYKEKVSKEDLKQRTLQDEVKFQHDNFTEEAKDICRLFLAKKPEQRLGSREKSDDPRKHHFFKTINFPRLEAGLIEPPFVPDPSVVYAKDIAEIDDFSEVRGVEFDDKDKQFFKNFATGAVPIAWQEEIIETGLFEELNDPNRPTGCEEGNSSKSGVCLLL

[2] = molecular target: T2, Interleukin-1 receptor-associated kinase 4 (Homo sapiens) (UniProt Q9NWZ3); assay: Selectivity interaction (Kinase panel (KiNativ target engagement assay in Jurkat cells)) EUB0001635a IRAK4; assay type: cell-based; settings: Selectivity number of off-targets 0.0, Selectivity number of targets 233.0, Source Knowledge https://www.sciencedirect.com/science/article/pii/S2451945619300674?via%3Dihub, at 1 µM
T2 sequence (whole entry): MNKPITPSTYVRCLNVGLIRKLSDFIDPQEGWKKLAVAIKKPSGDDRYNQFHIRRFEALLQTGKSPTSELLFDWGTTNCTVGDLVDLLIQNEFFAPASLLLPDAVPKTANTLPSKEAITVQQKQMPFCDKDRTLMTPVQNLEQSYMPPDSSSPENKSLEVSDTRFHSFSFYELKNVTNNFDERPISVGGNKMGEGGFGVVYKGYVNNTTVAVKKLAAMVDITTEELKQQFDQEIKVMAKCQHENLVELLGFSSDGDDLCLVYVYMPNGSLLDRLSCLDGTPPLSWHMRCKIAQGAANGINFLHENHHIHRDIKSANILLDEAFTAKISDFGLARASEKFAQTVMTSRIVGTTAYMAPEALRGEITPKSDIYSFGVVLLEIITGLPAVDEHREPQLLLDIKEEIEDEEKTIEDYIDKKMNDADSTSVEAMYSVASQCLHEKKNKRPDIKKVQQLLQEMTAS

[3] = molecular target: T3, Atypical kinase COQ8B, mitochondrial (Homo sapiens) (UniProt Q96D53); assay: Selectivity interaction (KinomeScan (DiscoverX)) EUB0000666a ADCK4; settings: at 10 µM
T3 sequence (whole entry): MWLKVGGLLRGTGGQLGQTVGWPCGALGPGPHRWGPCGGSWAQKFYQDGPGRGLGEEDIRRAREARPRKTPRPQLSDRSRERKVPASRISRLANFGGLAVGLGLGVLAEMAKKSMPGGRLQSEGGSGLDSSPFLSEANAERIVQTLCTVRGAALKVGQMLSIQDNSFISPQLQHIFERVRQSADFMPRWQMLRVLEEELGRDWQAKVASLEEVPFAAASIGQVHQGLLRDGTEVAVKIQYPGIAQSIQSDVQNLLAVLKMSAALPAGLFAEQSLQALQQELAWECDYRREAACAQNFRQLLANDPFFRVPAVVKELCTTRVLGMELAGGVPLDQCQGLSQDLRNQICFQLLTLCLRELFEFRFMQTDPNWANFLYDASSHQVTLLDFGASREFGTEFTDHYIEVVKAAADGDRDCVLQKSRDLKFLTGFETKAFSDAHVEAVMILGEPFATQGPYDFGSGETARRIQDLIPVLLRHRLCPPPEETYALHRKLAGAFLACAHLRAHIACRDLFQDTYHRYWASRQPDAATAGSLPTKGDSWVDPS

[4] = molecular target: Death-associated protein kinase 1 (Homo sapiens, UniProt P53355); assay: Selectivity interaction (KinomeScan (DiscoverX)) EUB0000666a DAPK1; settings: at 10 µM
[5] = molecular target: Serine/threonine-protein kinase OSR1 (Homo sapiens) (UniProt O95747); assay: Selectivity interaction (ActivX KiNativ screen (kinase selectivity in THP-1 cell lysates)) EUB0000639a OXSR1; assay type: subcellular; settings: lysate
[6] = molecular target: T4, Cyclin-dependent kinase 11A (Homo sapiens) (UniProt Q9UQ88); assay: Selectivity interaction (KinomeScan (DiscoverX)) EUB0000607a CDK11A; settings: at 10 µM
T4 sequence (whole entry): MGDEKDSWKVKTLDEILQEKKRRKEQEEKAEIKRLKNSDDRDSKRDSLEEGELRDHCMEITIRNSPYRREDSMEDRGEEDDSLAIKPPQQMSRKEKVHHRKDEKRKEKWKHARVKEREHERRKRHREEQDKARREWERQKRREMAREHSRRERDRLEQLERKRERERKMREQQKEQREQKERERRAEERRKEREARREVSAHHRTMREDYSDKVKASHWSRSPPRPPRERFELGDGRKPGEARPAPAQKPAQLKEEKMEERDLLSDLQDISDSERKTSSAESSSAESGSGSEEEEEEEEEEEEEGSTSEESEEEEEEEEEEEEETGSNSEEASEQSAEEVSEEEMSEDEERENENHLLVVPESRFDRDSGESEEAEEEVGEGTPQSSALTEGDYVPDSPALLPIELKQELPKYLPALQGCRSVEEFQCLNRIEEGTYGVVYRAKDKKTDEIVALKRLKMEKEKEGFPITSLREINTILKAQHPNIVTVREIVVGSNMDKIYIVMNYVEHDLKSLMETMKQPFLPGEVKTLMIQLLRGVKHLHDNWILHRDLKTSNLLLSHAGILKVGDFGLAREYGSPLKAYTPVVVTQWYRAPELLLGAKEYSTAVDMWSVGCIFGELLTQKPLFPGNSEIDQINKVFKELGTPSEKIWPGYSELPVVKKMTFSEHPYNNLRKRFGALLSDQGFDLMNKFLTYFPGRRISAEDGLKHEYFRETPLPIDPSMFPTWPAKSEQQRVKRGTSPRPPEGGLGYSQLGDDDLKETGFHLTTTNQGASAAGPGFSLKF

[7] = molecular target: Ribosomal protein S6 kinase alpha-4 (Homo sapiens) (UniProt O75676); assay: Selectivity interaction (KinomeScan (DiscoverX)) EUB0000045b RPS6KA4
Sequence of Ribosomal protein S6 kinase alpha-4 (Homo sapiens) (O75676 whole entry, looked up): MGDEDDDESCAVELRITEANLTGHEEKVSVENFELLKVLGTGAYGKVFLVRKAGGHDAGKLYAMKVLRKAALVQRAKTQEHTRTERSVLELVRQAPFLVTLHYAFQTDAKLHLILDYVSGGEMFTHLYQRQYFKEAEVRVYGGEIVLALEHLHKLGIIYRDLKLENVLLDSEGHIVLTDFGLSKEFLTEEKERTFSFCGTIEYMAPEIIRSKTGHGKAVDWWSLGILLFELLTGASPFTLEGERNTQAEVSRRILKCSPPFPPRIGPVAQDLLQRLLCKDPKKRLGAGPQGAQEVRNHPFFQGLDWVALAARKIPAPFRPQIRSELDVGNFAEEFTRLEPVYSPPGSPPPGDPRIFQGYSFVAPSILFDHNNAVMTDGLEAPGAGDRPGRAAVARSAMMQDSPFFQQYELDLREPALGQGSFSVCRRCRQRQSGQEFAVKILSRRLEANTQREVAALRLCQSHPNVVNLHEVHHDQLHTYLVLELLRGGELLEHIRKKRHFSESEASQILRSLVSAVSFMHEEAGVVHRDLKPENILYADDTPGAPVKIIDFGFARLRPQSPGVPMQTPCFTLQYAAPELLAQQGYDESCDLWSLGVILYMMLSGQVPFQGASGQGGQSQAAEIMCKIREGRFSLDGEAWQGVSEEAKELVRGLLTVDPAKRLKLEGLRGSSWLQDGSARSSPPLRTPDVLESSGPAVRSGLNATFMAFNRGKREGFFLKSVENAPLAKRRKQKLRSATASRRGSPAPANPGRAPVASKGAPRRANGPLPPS

Sequence of Serine/threonine-protein kinase OSR1 (Homo sapiens) (O95747 2-527 limits assumed): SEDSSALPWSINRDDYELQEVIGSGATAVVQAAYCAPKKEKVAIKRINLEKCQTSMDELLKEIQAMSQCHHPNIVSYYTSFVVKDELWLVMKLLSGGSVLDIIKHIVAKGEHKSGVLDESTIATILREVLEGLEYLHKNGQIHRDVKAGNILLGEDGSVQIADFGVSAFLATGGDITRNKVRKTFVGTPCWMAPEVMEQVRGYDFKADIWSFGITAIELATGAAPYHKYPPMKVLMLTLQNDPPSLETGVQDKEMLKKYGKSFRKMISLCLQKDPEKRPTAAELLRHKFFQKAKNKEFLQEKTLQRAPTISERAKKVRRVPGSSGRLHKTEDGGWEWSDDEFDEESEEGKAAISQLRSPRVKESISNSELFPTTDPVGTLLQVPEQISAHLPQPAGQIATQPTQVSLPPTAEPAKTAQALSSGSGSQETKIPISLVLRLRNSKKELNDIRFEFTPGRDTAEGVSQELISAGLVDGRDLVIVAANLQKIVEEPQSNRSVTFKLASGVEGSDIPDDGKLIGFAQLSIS
Sequence of Death-associated protein kinase 1 (P53355 whole entry, looked up): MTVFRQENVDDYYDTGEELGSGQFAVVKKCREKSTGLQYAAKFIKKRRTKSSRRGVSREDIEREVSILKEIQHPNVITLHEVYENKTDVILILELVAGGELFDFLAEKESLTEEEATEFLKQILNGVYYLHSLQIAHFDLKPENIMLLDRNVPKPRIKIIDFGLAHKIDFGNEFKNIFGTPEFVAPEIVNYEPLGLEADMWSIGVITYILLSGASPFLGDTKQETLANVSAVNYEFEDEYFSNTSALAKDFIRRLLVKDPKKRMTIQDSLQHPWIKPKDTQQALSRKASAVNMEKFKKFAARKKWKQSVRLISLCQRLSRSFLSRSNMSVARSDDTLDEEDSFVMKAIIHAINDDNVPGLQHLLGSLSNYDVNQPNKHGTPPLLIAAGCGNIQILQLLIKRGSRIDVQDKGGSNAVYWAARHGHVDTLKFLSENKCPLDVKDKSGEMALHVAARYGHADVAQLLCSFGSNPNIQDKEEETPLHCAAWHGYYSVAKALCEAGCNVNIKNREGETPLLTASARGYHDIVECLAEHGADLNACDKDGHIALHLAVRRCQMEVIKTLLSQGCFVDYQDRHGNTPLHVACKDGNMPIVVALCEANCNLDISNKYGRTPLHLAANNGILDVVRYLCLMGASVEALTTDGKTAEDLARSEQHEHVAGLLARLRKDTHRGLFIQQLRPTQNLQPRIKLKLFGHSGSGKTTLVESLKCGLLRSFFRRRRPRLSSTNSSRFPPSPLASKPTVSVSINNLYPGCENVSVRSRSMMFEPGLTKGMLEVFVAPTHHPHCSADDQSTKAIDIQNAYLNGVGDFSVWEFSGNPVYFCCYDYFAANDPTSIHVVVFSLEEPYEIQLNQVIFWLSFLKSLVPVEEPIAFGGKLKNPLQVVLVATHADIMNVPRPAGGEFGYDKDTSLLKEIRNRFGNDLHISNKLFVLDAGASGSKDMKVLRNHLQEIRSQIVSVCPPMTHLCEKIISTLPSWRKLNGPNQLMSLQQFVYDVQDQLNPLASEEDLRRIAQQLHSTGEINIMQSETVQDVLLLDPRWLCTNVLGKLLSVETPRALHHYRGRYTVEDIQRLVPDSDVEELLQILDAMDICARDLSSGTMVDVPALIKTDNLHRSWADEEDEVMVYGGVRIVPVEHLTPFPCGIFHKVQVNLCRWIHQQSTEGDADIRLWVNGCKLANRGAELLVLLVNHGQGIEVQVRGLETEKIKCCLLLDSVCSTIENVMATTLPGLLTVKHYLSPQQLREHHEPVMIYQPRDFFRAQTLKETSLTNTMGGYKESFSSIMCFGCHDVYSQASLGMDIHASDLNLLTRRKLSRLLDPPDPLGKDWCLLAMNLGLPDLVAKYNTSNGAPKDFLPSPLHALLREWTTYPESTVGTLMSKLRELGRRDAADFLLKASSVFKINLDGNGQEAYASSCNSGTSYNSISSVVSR

Work on `Nc1cnc(N2CCc3cc(S(=O)(=O)Nc4c(F)cc(Cl)cc4F)cc(N4CCCC4=O)c32)nc1` [TP-020n] yielded a % of control [1] of 99%.

`C=CC(=O)Nc1ccc(C(=O)Nc2[nH]nc3c2CN(C(=O)N[C@H](CN(C)C)c2ccccc2)C3(C)C)cc1` showed a % of engagement [2] of 2%.

Molecule `O=C(NOC[C@H](O)CO)c1ccc(F)c(F)c1Nc1ccc(I)cc1F` has a % of control [3] of 100% and a % of control [4] of 100%.

Molecule `CC[C@@H]1[C@H](F)C(=O)N[C@@H]1COc1nccc2cc(C(N)=O)c(OC)cc12` [ZIMLOVISERTIB] has a % of inhibition ([5]; at 0.01 µM) of -18.1%, a % of inhibition ([5]; at 0.04 µM) of -9.1% and a % of inhibition ([5]; at 0.2 µM) of -3%. For the same molecule, the % of inhibition ([5]; at 1 µM) was -10.3% and the % of inhibition ([5]; at 5 µM) was 16.3%.

Molecule `CNC(=O)Nc1ccc(-c2nc(N3CC4CCC(C3)O4)c3cnn(C4CCC5(CC4)OCCO5)c3n2)cc1` has a % of control [6] of 100%.

`C=CC(=O)Nc1cc(-n2c(=O)ccc3cnc4ccc(-c5ccc(NS(C)(=O)=O)cc5)cc4c32)ccc1C` gave a % of control ([7]; at 1 µM) of 100% and a % of control ([7]; at 10 µM) of 100%.
